Measured values as given in patent publication US20230026163A1, “ANTICANCER COMPOUND AND MEDICAL USE THEREOF” (ASCENTAWITS PHARMACEUTICALS, LTD., priority 2019, published 2023).
Read-outs that look alike come from different tables or passages of the source.

Tests used:
Plasma stability, rat = format: in vitro ADME
Experimental: Frozen plasma was melted immediately in a water bath at 37° C. […] The supernatants were collected into new tubes, respectively. pH values of the plasma were checked and recorded. Note: a, no more 2 times melted plasma was used since the sample was received; b, the plasma in pH 7 to pH 8 was used.
1 mM of working solution of the test compounds and the control compound, propantheline, were prepared in DMSO. 1 mM of working solution of the control compound in […] was prepared in acetonitrile. 4 μL of the working solutions were added to 796 μL of pre-incubated plasma respectively to achieve a final concentration of 5 μM. The final concentration of solvent was 0.5%.
[…] The test was performed in duplicate. […] 50 μL of the labeled plasma was added to new tubes containing 300 μL of the quench solution of room temperature, i.e., the sample with a preparation time of 0. The samples were vortexed to mix for 5 minutes. […] 100 μL of the supernatant was transferred to new plates.

AA8 = assay: Cytotoxicity on cell lines of different species: AA8; format: cell-based
H460 cell line = assay: Hypoxia-dependent cytotoxicity experiment (2 hours exposure, air or N2, CTG); format: cell-based; details: Homo sapiens, then 3 days
Experimental: To determine the effect of the compounds of the present disclosure on cancer cell proliferation, these compounds were tested for cancer cell anti-proliferative activity in a porous CTG-based assay. Cell growth was compared in the present (treatment groups) and the absence of the test compound. 10,000 cells/well/495 μL of medium was used to test the following cell line, a human tumor cell line of H460 non-small cell lung cancer. The cells were seeded on glass-inserts located in each well of 24-well plates with a density and medium as specified above. 24 hours later, the plates were divided into 2 groups, hypoxia (using N2) group and air group. TH-302 at the concentrations from 100, 10, 0.1 to 0.01 μM, and the test compounds at the concentrations from 10, 1, 0.1, 0.01, 0.001 to 0.0001 were added to each well (500 μL volume) of the treatment groups. The final DMSO concentration in each well was lower than or equal to 1%. The cells in the hypoxia group were incubated for 2 hours in an ELECTROTEK hypoxia workstation. The cells in the air group were incubated for 2 hours in a standard culture incubator. 2 hours later, the test compounds were removed from each well. The cells were washed with 500 μL of medium and incubated in 500 μL of fresh medium for 3 days. 3 days later, 200 μL of medium per well was discarded. 60 μL of CTG was added to the wells, and the plates were placed at room temperature for 15 minutes in the dark. 100 μL of medium from each well of the 24-well plates was transferred to 96-well plates. The chemiluminescence signal values were read with an M5 full-band multi-mode-function microplate reader, and integration=750 ms. The compounds of control 1 and control 2 were used as controls.

[1] = system: H460 non-small cell lung cancer; assay: Cytotoxicity test of human tumor cell line in vitro (CTG, 72 hours); format: cell-based; details: Homo sapiens, NCI-H460; H460, 72 hours exposure
Experimental: IC50 values were obtained by the following methods. The cancer cells were exposed to various concentrations of compounds for 72 hours. Following by washing steps, fresh medium was added to allow the growth of the cancer cells. The cancer cells were stained to obtain cell viability. Then, comparisons were made with the medium-only control.
Specifically, the exponentially growing cells were seeded in 96-well plates at a density of 2×10^3 cells/well, and 100 μL/well. The cells were incubated for 24 hours at 37° C., in 5% CO2, in 95% air, and 100% relative humidity. Next, 99 μL of culture medium was added. The compounds were dissolved in 100% DMSO at 200 times the desired final test concentration. Upon addition of compounds, the compounds were further diluted to 4 times the desired final concentration with a complete medium. Aliquots of 1 μL of compounds at specific concentration were added to the micro-wells containing 199 μL of medium to obtain the final compound concentrations as reported. After the compounds were added, the plates were incubated for an addition 72 hours at 37° C., in 5% CO2, in 95% air, and 100% relative humidity.
The plates to be test containing the cells were equilibrated at room temperature for 30 minutes, and 100 μL of medium per well was discarded. 100 μL of CTG reagent (CelltiterGlo Kit) was added to each well. The plates were placed in a fast-shaker to shake for 2 minutes, and placed at room temperature for 30 minutes in the dark. Chemoluminescence signal values were read with Envision instrument.

O=[N+]([O-])c1ccc(C(OP(=O)(N2CC2)N2CC2)C(F)(F)F)c2ccccc12 (stereo not shown) [Compound 01]
Remaining percentage (Plasma stability, rat; Rat plasma, 5 μM, 37° C., after 30 minutes): 52.11%
Stability in plasma (conclusion) (Plasma stability, rat; rat): relatively unstable
IC50 (AA8; CHO-AA8, 72 h, AA8, Rat, exposure time: 3 days): 11000 nM
Multiple: Rat/Human (AA8; IC50 AA8 / IC50 H460): 110
IC50 (H460 cell line; NCI-H460, H460, air, read-out: Normoxia: IC50): 331 nM
IC50 (H460 cell line; NCI-H460, H460, hypoxia (N2), read-out: N2: IC50): 23.9 nM
IC50 [1]: 128 nM
